23 molecules from US20230279025A1, “KRAS G12D INHIBITORS” (Mirati Therapeutics, Inc., priority 2020, published 2023) can be followed below.

The target in this assay is KRas G12D (Homo sapiens (Human), UniProt P01116, G12D). Kind of assay: KRas G12D Binding Assay (TR-FRET displacement of Cy5 labelled tracer). The settings on record: GDP-loaded KRAS G12D (amino acids 1:169), 60 minute incubation at 22° C. As for the experimental part: After a 60 minute incubation at 22° C., the reaction was measured using a PerkinElmer EnVision multimode plate reader via TR-FRET dual wavelength detection, and the percent of control (POC) calculated using a ratiometric emission factor. […] The POC values were fit to a 4-parameter logistic curve and the IC50 value was determined as the concentration where the curve crosses 50 POC.
Sequence of KRas G12D (P01116 other isoform, or with tags, fused parts or gaps G12D): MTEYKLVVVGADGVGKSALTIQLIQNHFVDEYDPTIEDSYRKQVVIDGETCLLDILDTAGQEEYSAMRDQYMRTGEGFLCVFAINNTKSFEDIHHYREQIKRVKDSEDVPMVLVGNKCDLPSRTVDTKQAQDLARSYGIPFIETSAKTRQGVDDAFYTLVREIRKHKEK
ND stands for “not determined.”
A general note: TR-FRET usually uses a lanthanide donor and a delayed reading to cut background.

Structures can show the parent of a compound that is named as a salt.

For orientation: IC50 means the concentration needed to halve the response being measured. Low values mean inhibition by little substance, high ones a need for much substance. Consider `CN1CCC[C@H]1COc1nc(N2C[C@H]3CC[C@@H](C2)N3)c2cnc(-c3cc(O)cc4cccc(Cl)c34)c(F)c2n1` [Example 63, 4-(4-((1R,5S)-3,8-diazabicyclo[3.2.1]octan-3-yl)-8-fluoro-2-(((S)-1-methylpyrrolidin-2-yl)methoxy)pyrido[4,3-d]pyrimidin-7-yl)-5-chloronaphthalen-2-ol], for which the IC50 amounted to 0.4 nM.

Regarding `FCCCc1cccc2cccc(-c3ncc4c(N5C[C@H]6CC[C@@H](C5)N6)nc(OCC56CCCN5CCC6)nc4c3F)c12` [Example 255, 4-((1R,5S)-3,8-diazabicyclo[3.2.1]octan-3-yl)-8-fluoro-7-(8-(3-fluoropropyl)naphthalen-1-yl)-2-((hexahydro-1H-pyrrolizin-7a-yl)methoxy)pyrido[4,3-d]pyrimidine], the IC50 is 8.7 nM.

Turning to `Fc1c(-c2ccccc2C2CC2)ncc2c(N3C[C@H]4CC[C@@H](C3)N4)nc(OC[C@@]34CCCN3C[C@H](F)C4)nc12` [Example 448, 4-((1R,5S)-3,8-diazabicyclo[3.2.1]octan-3-yl)-7-(2-cyclopropylphenyl)-8-fluoro-2-(((2R,7aS)-2-fluorohexahydro-1H-pyrrolizin-7a-yl)methoxy)pyrido[4,3-d]pyrimidine], the IC50 was determined as 130 nM.

As to `COC1CN2CCCC2(COc2nc(N3CC4CCC(C3)N4)c3cnc(-c4cc(O)cc5cccc(F)c45)c(F)c3n2)C1` (mixture of isomers) [Example 388, 4-(4-((1R,5S)-3,8-diazabicyclo[3.2.1]octan-3-yl)-8-fluoro-2-((2-methoxytetrahydro-1H-pyrrolizin-7a(5H)-yl)methoxy)pyrido[4,3-d]pyrimidin-7-yl)-5-fluoronaphthalen-2-ol], the IC50 came out at 0.6 nM.

For `CO[C@H]1CN[C@H](COc2nc(N3C[C@H]4CC[C@@H](C3)N4)c3cnc(-c4cccc5cccc(Cl)c45)c(F)c3n2)C1` [Example 351, 4-((1R,5S)-3,8-diazabicyclo[3.2.1]octan-3-yl)-7-(8-chloronaphthalen-1-yl)-8-fluoro-2-(((2S,4R)-4-methoxypyrrolidin-2-yl)methoxy)pyrido[4,3-d]pyrimidine], the 50% inhibitory concentration (IC50) was 94.8 nM.

As for `CCC#Cc1cccc2cccc(-c3ncc4c(N5C[C@H]6CC[C@@H](C5)N6)nc(OCC56CCCN5CCC6)nc4c3F)c12` [Example 242, 4-((1R,5S)-3,8-diazabicyclo[3.2.1]octan-3-yl)-7-(8-(but-1-yn-1-yl)naphthalen-1-yl)-8-fluoro-2-((tetrahydro-1H-pyrrolizin-7a(5H)-yl)methoxy)pyrido[4,3-d]pyrimidine], the concentration for half-maximal inhibition (IC50) turned out to be 82.2 nM.

`O=C1OCCN1C[C@H]1CC[C@@]2(COc3nc(N4CC5CCC(C4)N5)c4cnc(-c5cccc6cccc(Cl)c56)c(F)c4n3)CCCN12` [Example 442, 3-(((3R,7aR)-7a-(((4-(3,8-diazabicyclo[3.2.1]octan-3-yl)-7-(8-chloronaphthalen-1-yl)-8-fluoropyrido[4,3-d]pyrimidin-2-yl)oxy)methyl)hexahydro-1H-pyrrolizin-3-yl)methyl)oxazolidin-2-one] showed an IC50 of 25 nM.

`OCC12CCCN1CC(Oc1nc(N3C[C@H]4CC[C@@H](C3)N4)c3cnc(-c4cccc5cccc(Cl)c45)c(F)c3n1)C2` (stereo partly drawn) [Example 222, (2-((4-((1R,5S)-3,8-diazabicyclo[3.2.1]octan-3-yl)-7-(8-chloronaphthalen-1-yl)-8-fluoropyrido[4,3-d]pyrimidin-2-yl)oxy)tetrahydro-1H-pyrrolizin-7a(5H)-yl)methanol bis-TFA salt]: the IC50 is 1130 nM.

As to `Oc1ccc(OC(F)(F)F)c(-c2ncc3c(N4CC5CCC(C4)N5)nc(OCC45CCCN4C[C@H](F)C5)nc3c2F)c1` (mixture of isomers) [Example 340, 3-(4-((1R,5S)-3,8-diazabicyclo[3.2.1]octan-3-yl)-8-fluoro-2-((2-fluorotetrahydro-1H-pyrrolizin-7a(5H)-yl)methoxy)pyrido[4,3-d]pyrimidin-7-yl)-4-(trifluoromethoxy)phenol (racemic, trans)], the concentration for half-maximal inhibition (IC50) is 0.4 nM.

As to `C#Cc1c(F)ccc2cccc(-c3ncc4c(N5C[C@H]6CC[C@@H](C5)N6)nc(OCC56CCCN5CCC6)nc4c3F)c12` [Example 189, 4-((1R,5S)-3,8-diazabicyclo[3.2.1]octan-3-yl)-7-(8-ethynyl-7-fluoronaphthalen-1-yl)-8-fluoro-2-((tetrahydro-1H-pyrrolizin-7a(5H)-yl)methoxy)pyrido[4,3-d]pyrimidine], the 50% inhibitory concentration (IC50) was 0.5 nM.

Regarding `Oc1cc(-c2ncc3c(N4C[C@H]5CC[C@@H](C4)N5)nc(OCC45CCCN4C(CF)CC5)nc3c2F)c2ccccc2c1` (mixture of isomers) [Example 384, 4-(4-((1R,5S)-3,8-diazabicyclo[3.2.1]octan-3-yl)-8-fluoro-2-((3-(fluoromethyl)tetrahydro-1H-pyrrolizin-7a(5H)-yl)methoxy)pyrido[4,3-d]pyrimidin-7-yl)naphthalen-2-ol], the IC50 worked out at 2.4 nM.

`CC(C)c1c(F)cccc1-c1ncc2c(N3C[C@H]4CC[C@@H](C3)N4)nc(OCC34CCCN3CCC4)nc2c1F` [Example 299, 4-((1R,5S)-3,8-diazabicyclo[3.2.1]octan-3-yl)-8-fluoro-7-(3-fluoro-2-isopropylphenyl)-2-((hexahydro-1H-pyrrolizin-7a-yl)methoxy)pyrido[4,3-d]pyrimidine] returned a concentration for half-maximal inhibition (IC50) of 132 nM.

Consider `Cc1cc(-c2ncc3c(N4CC5CCC(C4)N5)nc(OC[C@@]45CCCN4C[C@H](F)C5)nc3c2F)c2cn[nH]c2c1` (stereo in doubt) [Example 391, 4-((1R,5S)-3,8-diazabicyclo[3.2.1]octan-3-yl)-8-fluoro-2-((2-fluorotetrahydro-1H-pyrrolizin-7a(5H)-yl)methoxy)-7-(6-methyl-1H-indazol-4-yl)pyrido[4,3-d]pyrimidine], for which the IC50 worked out at 662 nM.

The molecule `CNC(=O)OC[C@H]1CC[C@@]2(COc3nc(N4CC5CCC(C4)N5)c4cnc(-c5cccc6cccc(Cl)c56)c(F)c4n3)CCCN12` [Example 408, (7a-(((4-(3,8-diazabicyclo[3.2.1]octan-3-yl)-7-(8-chloronaphthalen-1-yl)-8-fluoropyrido[4,3-d]pyrimidin-2-yl)oxy)methyl)hexahydro-1H-pyrrolizin-3-yl)methyl methylcarbamate] gave an IC50 of 3.1 nM.

With `Fc1c(-c2c(Cl)ccc3ccccc23)ncc2c(N3C[C@H]4CC[C@@H](C3)N4)nc(OCC34CCCN3CCC4)nc12` [Example 349, 4-((1R,5S)-3,8-diazabicyclo[3.2.1]octan-3-yl)-7-(2-chloronaphthalen-1-yl)-8-fluoro-2-((tetrahydro-1H-pyrrolizin-7a(5H)-yl)methoxy)pyrido[4,3-d]pyrimidine], the concentration for half-maximal inhibition (IC50) was determined as 561 nM.

`O[C@@H]1C[C@@H]2CN(c3nc(OCCc4ccc(F)cn4)nc4c(F)c(-c5cccc6cccc(Cl)c56)ncc34)C[C@H]1N2` [Example 32, (1R,5R,6R)-3-(7-(8-chloronaphthalen-1-yl)-8-fluoro-2-(2-(5-fluoropyridin-2-yl)ethoxy)pyrido[4,3-d]pyrimidin-4-yl)-3,8-diazabicyclo[3.2.1]octan-6-ol] registered a half-maximal inhibitory concentration (IC50) of 2140 nM.

Turning to `Fc1c(-c2cccc(C(F)(F)F)c2C(F)(F)F)ncc2c(N3C[C@H]4CC[C@@H](C3)N4)nc(OCC34CCCN3CCC4)nc12` [Example 197, 4-((1R,5S)-3,8-diazabicyclo[3.2.1]octan-3-yl)-7-(2,3-bis(trifluoromethyl)phenyl)-8-fluoro-2-((tetrahydro-1H-pyrrolizin-7a(5H)-yl)methoxy)pyrido[4,3-d]pyrimidine], the half-inhibitory concentration (IC50) is 99.9 nM.

For the molecule `Oc1c(F)cc(F)c(-c2ncc3c(N4C[C@H]5CC[C@@H](C4)N5)nc(OCC45CCCN4CCC5)nc3c2F)c1F` [Example 350, 3-(4-((1R,5S)-3,8-diazabicyclo[3.2.1]octan-3-yl)-8-fluoro-2-((tetrahydro-1H-pyrrolizin-7a(5H)-yl)methoxy)pyrido[4,3-d]pyrimidin-7-yl)-2,4,6-trifluorophenol], the IC50 is 3820 nM.

In turn, `Cn1ccc2cccc(-c3ncc4c(N5C[C@H]6CC[C@@H](C5)N6)nc(OCC56CCCN5CCC6)nc4c3F)c21` [Example 446, 4-((1R,5S)-3,8-diazabicyclo[3.2.1]octan-3-yl)-8-fluoro-7-(1-methyl-1H-indol-7-yl)-2-((tetrahydro-1H-pyrrolizin-7a(5H)-yl)methoxy)pyrido[4,3-d]pyrimidine] gave an IC50 of 357 nM.

Regarding `Fc1c(-c2ccccc2[C@@H]2C[C@H]2F)ncc2c(N3C[C@H]4CC[C@@H](C3)N4)nc(OCC34CCCN3CCC4)nc12` (relative stereo) [Example 285, 4-((1R,5S)-3,8-diazabicyclo[3.2.1]octan-3-yl)-8-fluoro-7-(2-(trans-2-fluorocyclopropyl)phenyl)-2-((hexahydro-1H-pyrrolizin-7a-yl)methoxy)pyrido[4,3-d]pyrimidine], the concentration for half-maximal inhibition (IC50) was 279 nM.

For the molecule `C#Cc1cccc2cccc(-c3ncc4c(N5C[C@H]6CC[C@@H](C5)N6)nc(OC[C@]56CCCN5C[C@@H](F)C6)nc4c3F)c12` [Example 205, 4-((1R,5S)-3,8-diazabicyclo[3.2.1]octan-3-yl)-7-(8-ethynylnaphthalen-1-yl)-8-fluoro-2-(((2S,7aR)-2-fluorotetrahydro-1H-pyrrolizin-7a(5H)-yl)methoxy)pyrido[4,3-d]pyrimidine], the IC50 was 1.2 nM.

Molecule `C#Cc1c(F)ccc2cccc(-c3ncc4c(N5C[C@H]6CC[C@@H](C5)N6)nc(OC[C@]56CCCN5[C@@H](COC(=O)N(C)C)CC6)nc4c3F)c12` [Example 439, ((3R,7aR)-7a-(((4-((1R,5S)-3,8-diazabicyclo[3.2.1]octan-3-yl)-7-(8-ethynyl-7-fluoronaphthalen-1-yl)-8-fluoropyrido[4,3-d]pyrimidin-2-yl)oxy)methyl)hexahydro-1H-pyrrolizin-3-yl)methyl dimethylcarbamate] gave an IC50 of 0.4 nM.

The molecule `CC(C)c1ncccc1-c1ncc2c(N3C[C@H]4CC[C@@H](C3)N4)nc(OCC34CCCN3CCC4)nc2c1F` [Example 307, 4-((1R,5S)-3,8-diazabicyclo[3.2.1]octan-3-yl)-8-fluoro-2-((hexahydro-1H-pyrrolizin-7a-yl)methoxy)-7-(2-isopropylpyridin-3-yl)pyrido[4,3-d]pyrimidine] registered a concentration for half-maximal inhibition (IC50) of 3160 nM.
